Measured values: patent US7109174B2, “Anticonvulsant derivatives useful for preventing the development of type II diabetes mellitus and syndrome X” (Ortho-McNeil Pharmaceutical, Inc., priority 2000, dated 2006)

Experiments:
[1] = system: rodent models of epilepsy; conditions: several rodent models of epilepsy; cited from earlier work
Female db/db mice = assay: Oral glucose tolerance test (fasted) in female db/db mice after 11 days oral dosing; assay type: in vivo; conditions: for Oral Glucose Tolerance Test (fasted) Plasma Glucose: ± sem
Experimental: Female db/db mice (C57BLK S/J-m^+/^+ Lepr^db Jackson Labs, Bar Harbor, Me.), 7–8 weeks of age, were housed four per cage in solid-bottomed shoe box cages. Room temperature was maintained at 68–72° F. and humidity at 50–65%. Room lighting was on a 12-hour light/12-hour dark cycle. The mice were maintained on NIH Rat and Mouse/Auto 6F reduced fat diet #5K52 (PMI Nutrition Int'l Inc.). Food and water were supplied ad libitum.
Test compound and vehicle were dosed orally and prepared as suspensions in 0.5% hydroxypropylmethylcellulose (Dow Chemical, Midland, Mich.). The dosing volume was 10 mL/kg of body weight.
Different groups of female db/db mice (7–8/group) were orally gavaged daily for 11 days with either 0.5% methylcellulose in dH2O (vehicle), topiramate at 30 or 100 mg/kg/day or 2,3:4,5-bis-O-(1-methylethylidene)-β-L-fructopyranose sulfamate (hereinafter referred to as Compound V) at 30 or 100 mg/kg/day. On day 10, the animals were fasted for 20 hours before being tested for oral glucose tolerance (OGT). On day 11, four hours after the final dose for each group, an oral glucose tolerance test (OGTT) was performed by oral glucose administration of 2 g/kg. Animals were bled through tail clip at 0 (before glucose), 30, 60 and 120 min after glucose challenge. The blood samples were collected into heparinized CB microvettes and then put on ice. The plasma samples will be assayed for plasma glucose determination by using SIGMA DIAGNOSTICS Trinder reagent (Sigma, St. Louis, Mo.). Statistical analysis was performed using the program Instat (Graphpad, Monrovia, Calif.) and performing one-way ANOVA with a Dunnett's multiple comparison test.
Following the above described procedure, the effect of topiramate and compound V on oral glucose tolerance in female db/db mice, 7 mice/group, was determined, with results as listed in Table 9. The abbreviation N represents the number of animals per study group.

[2] = system: male Zucker diabetic fatty (ZDF/Gmi-Fa) rats; assay: Plasma glucose, triglycerides and body weight change in male Zucker diabetic fatty rats, orally dosed for 14 days; assay type: in vivo; conditions: for Body Weight Change / Plasma Glucose Levels Plasma Conc. / Plasma Triglyceride Levels Plasma Conc.: ± sem
Experimental: Six week old male Zucker diabetic fatty (ZDF/Gmi-Fa) rats were purchased from Genetic Models, Inc. Indianapolis, Ind. The rats were housed in groups of four in hanging metal cages, at an ambient temperature of 68–72° F., on a 12 hour-12 hour light-dark schedule and given access to water and food ad libitum. Lean rats (ZDF/GMI−+/+or +/fa) were used as normal, non-diabetic controls. The diet was comprised of LabDiet 5008 breeding formula (PMI Nutrition Int'l, Brentwood, Mo.). The vehicle, used as a reference and for test compounds, was 0.5% methylcellulose dissolved in water. The compounds were either fully dissolved or uniformly suspended in the vehicle when administered to the […]. The rats were randomly separated into four groups of eight. The groups were as follows: one vehicle control group and three groups that each received one of three doses of TPM (30, 100, or 300 mg/kg, respectively). Topiramate or vehicle was administered orally by gavage once a day, for 14 consecutive days, during the 8th hour of the light portion of the light-dark cycle. At the start of the study, the rats were bled through a tail vein and plasma glucose and triglyceride levels were determined. Between 18 and 24 hours after the last dose was administered, blood samples were again taken via tail clip on day 1 (fed animals) and day 14 (fed animals). The plasma was collected into 2 mL heparinized snap-top polypropylene tubes, then placed in ice. Plasma was separated from blood cells by centrifugation (20 minutes at 1800 g). For samples not assayed immediately, the plasma was transferred into 96-well plates and frozen at −70° C. Body weights for the animals were determined at the start of the study and again after 14 days oral dosing. Glucose and triglycerides were assayed using standard procedures for blood clinical laboratories. Specifically, the samples were analyzed using an automated Hitachi 717 autoanalyzer (Boehringer Mannheim/Hitachi 717 Autoanalyzer, Boehringer Mannheim Laboratory Systems Division, Indianapolis, Ind.). A statistical analysis of data for the drug-treated groups compared to data for the vehicle group was performed using the one-way analysis of variance (ANOVA) with Dunnett's Multiple Comparisons test. Following the procedure described above, the effect of topiramate on plasma glucose, triglyceride levels and body weight changes was determined for male Zucker rats, orally dosed for 14 days, with results as listed in Table 6–8. The abbreviation N represents the number of animals per study group.

[3] = 30 mg/kg oral once a day, 14 days
[4] = 100 mg/kg oral once a day, 14 days
[5] = 100 mg/kg oral once a day, 14 days, P < 0.01
[6] = 300 mg/kg oral once a day, 14 days
[7] = 300 mg/kg oral once a day, 14 days, P < 0.01

## CC1(C)O[C@@H]2[C@@H](CO[C@@]3(COS(N)(=O)=O)OC(C)(C)O[C@@H]23)O1 [Topiramate, 2,3:4,5-bis-O-(1-methylethylidene)-β-D-fructopyranose sulfamate]
[1]
  seizure block: effectively block seizures
Female db/db mice; 30 mg/kg/day, 0 min (before glucose 2 g/kg)
  Oral Glucose Tolerance Test (fasted) Plasma Glucose: 188 ± 16.7 mg/dL
Female db/db mice; 30 mg/kg/day, 30 min after glucose 2 g/kg
  Oral Glucose Tolerance Test (fasted) Plasma Glucose: 401 ± 68.4 mg/dL
Female db/db mice; 30 mg/kg/day, 60 min after glucose 2 g/kg
  Oral Glucose Tolerance Test (fasted) Plasma Glucose: 295 ± 31.5 mg/dL
Female db/db mice; 30 mg/kg/day, 120 min after glucose 2 g/kg
  Oral Glucose Tolerance Test (fasted) Plasma Glucose: 124 ± 20 mg/dL
Female db/db mice; 100 mg/kg/day, 0 min (before glucose 2 g/kg)
  Oral Glucose Tolerance Test (fasted) Plasma Glucose: 160 ± 12.8 mg/dL
Female db/db mice; 100 mg/kg/day, 30 min after glucose 2 g/kg
  Oral Glucose Tolerance Test (fasted) Plasma Glucose: 454 ± 38.5 mg/dL
Female db/db mice; 100 mg/kg/day, 60 min after glucose 2 g/kg
  Oral Glucose Tolerance Test (fasted) Plasma Glucose: 271 ± 52.6 mg/dL
Female db/db mice; 100 mg/kg/day, 120 min after glucose 2 g/kg
  Oral Glucose Tolerance Test (fasted) Plasma Glucose: 184 ± 32.3 mg/dL
Female db/db mice; 30 or 100 mg/kg/day
  elevated blood glucose levels induced by oral glucose challenge: suppressed
  fasting glucose levels: decreased
[2]; [3]
  Plasma Glucose % Change from Diabetic Control: −24.9%
  Plasma Glucose % of Diabetic Control: 75.1%
  Plasma Triglyceride % Change from Diabetic Control: −20.4%
  Plasma Triglyceride % of Diabetic Control: 79.6%
  Body Weight Change: +95.5 ± 7.2 Gms
[2]; 30 mg/kg oral once a day, 14 days, P < 0.01
  Plasma Glucose Levels Plasma Conc.: 247.4 ± 17.8 mg/dL
[2]; 30 mg/kg oral once a day, 14 days, P < 0.05
  Plasma Triglyceride Levels Plasma Conc.: 482.4 ± 10.5 mg/dL
[2]; 30 mg/kg/day
  body weight change accompanying the reduction in blood glucose: without significant body weight change
[2]; 30 mg/kg/day, P<0.05
  decrease in plasma triglyceride levels: 20%
[2]; [4]
  Plasma Glucose % Change from Diabetic Control: −47.5%
  Plasma Glucose % of Diabetic Control: 52.5%
  Plasma Triglyceride % Change from Diabetic Control: −17.7%
  Plasma Triglyceride % of Diabetic Control: 82.3%
  Plasma Triglyceride Levels Plasma Conc.: 498.6 ± 58.8 mg/dL
[2]; [5]
  Body Weight Change: +75.7 ± 2.7 (P < 0.01) Gms
  Plasma Glucose Levels Plasma Conc.: 170.3 ± 14.7 mg/dL
[2]; [6]
  Plasma Glucose % Change from Diabetic Control: −49.5%
  Plasma Glucose % of Diabetic Control: 50.5%
  Plasma Triglyceride % Change from Diabetic Control: −30.2%
  Plasma Triglyceride % of Diabetic Control: 69.8%
[2]; [7]
  Body Weight Change: +64.4 ± 6.0 (P < 0.01) Gms
  Plasma Glucose Levels Plasma Conc.: 166.4 ± 11.1 mg/dL
  Plasma Triglyceride Levels Plasma Conc.: 423.0 ± 33.6 mg/dL
[2]; 300 mg/kg/day, P<0.01
  decrease in plasma triglyceride levels: 30%
[2]; 30 to 300 mg/kg, 14 days, P<0.01
  decrease in blood glucose levels: 25–50%
